Source: ChEMBL document CHEMBL2163213, “Synthesis and bioevaluation of novel 3,4,5-trimethoxybenzylbenzimidazole derivatives that inhibit Helicobacter pylori-induced pathogenesis in human gastric epithelial cells” (Eur J Med Chem, 2012)
Converted amounts (≈) assume the structure as drawn. The source made the active and inactive calls. The calls are words filed in the database; no cut-off is given here.

Key:
[1] = Antimicrobial activity against Helicobacter pylori 26695 ATCC 700392 at 100 ug/ml by disk agar diffusion method; assay type: functional; conditions: read-out: DIZ
AGS [2] = test: Cytotoxicity against human AGS cells assessed as cell viability by MTT assay; assay type: cell-based
Helicobacter pylori [3] = test: Inhibition of Helicobacter pylori adhesion to human AGS cells at 20 ug/ml after 6 hrs by gentamicin assay relative to control; assay type: functional
AGS [4] = test: Inhibition of NFkappaB activation expressed in human AGS cells infected with Helicobacter pylori assessed as inhibition of IL-8 production at 20 ug/ml relative to control; assay type: cell-based
Helicobacter pylori [5] = test: Antimicrobial activity against Helicobacter pylori infected in human AGS cells assessed as reduction of tyrosine phosphorylated CagA level translocation at 20 ug/ml after 6 hrs by immunoblot analysis; assay type: functional
Helicobacter pylori [6] = test: Antimicrobial activity against Helicobacter pylori infected in human AGS cells assessed as inhibition of CagA gene translocation after 6 hrs by immunoblot analysis; assay type: functional, organism-based
Helicobacter pylori [7] = test: Inhibition of Helicobacter pylori 26695 ATCC 700392 CagA-induced pathogenesis in human AGS cells assessed as reduction of hummingbird phenotype of host cells at 20 ug/ml after 6 hrs; assay type: functional; conditions: ATCC 700392 26695, AGS
Helicobacter pylori [8] = test: Inhibition of Helicobacter pylori adhesion to human AGS cells at 10 ug/ml after 6 hrs by gentamicin assay relative to control; assay type: functional
Helicobacter pylori [9] = test: Inhibition of Helicobacter pylori 26695 ATCC 700392 CagA-induced pathogenesis in human AGS cells assessed as reduction of hummingbird phenotype of host cells after 6 hrs; assay type: functional, cell-based; conditions: ATCC 700392 26695
Helicobacter pylori [10] = test: Antimicrobial activity against metronidazole and clarithromycin-resistant Helicobacter pylori v1254 at pH 5 by microdilution method; assay type: functional
[11] = Antimicrobial activity against Helicobacter pylori 26695 ATCC 700392 at pH 7 by microdilution method; assay type: functional
AGS [12] = test: Inhibition of NFkappaB activation expressed in human AGS cells infected with Helicobacter pylori at 20 ug/ml relative to control; assay type: cell-based
Helicobacter pylori [13] = test: Inhibition of Helicobacter pylori invasion to human AGS cells at 5 ug/ml after 6 hrs by gentamicin assay relative to control; assay type: functional
Helicobacter pylori [14] = test: Antimicrobial activity against metronidazole and clarithromycin-resistant Helicobacter pylori v633 at pH 8 by microdilution method; assay type: functional
Helicobacter pylori [15] = test: Antimicrobial activity against Helicobacter pylori infected in human AGS cells assessed as reduction of tyrosine phosphorylated CagA level translocation after 6 hrs by immunoblot analysis; assay type: functional, organism-based
Helicobacter pylori [16] = test: Inhibition of Helicobacter pylori adhesion to human AGS cells at 5 ug/ml after 6 hrs by gentamicin assay relative to control; assay type: functional
Helicobacter pylori [17] = test: Antimicrobial activity against Helicobacter pylori infected in human AGS cells assessed as inhibition of CagA gene translocation at 20 ug/ml after 6 hrs by immunoblot analysis; assay type: functional
Helicobacter pylori [18] = test: Inhibition of Helicobacter pylori invasion to human AGS cells at 20 ug/ml after 6 hrs by gentamicin assay relative to control; assay type: functional
[19] = Antimicrobial activity against Helicobacter pylori 26695 ATCC 700392 at pH 5 by microdilution method; assay type: functional
AGS [20] = test: Inhibition of NFkappaB activation expressed in human AGS cells infected with Helicobacter pylori at 10 ug/ml relative to control; assay type: cell-based
Helicobacter pylori [21] = test: Inhibition of Helicobacter pylori invasion to human AGS cells at 10 ug/ml after 6 hrs by gentamicin assay relative to control; assay type: functional
Helicobacter pylori [22] = test: Antimicrobial activity against metronidazole and clarithromycin-resistant Helicobacter pylori v1254 at pH 8 by microdilution method; assay type: functional
[23] = Antimicrobial activity against Helicobacter pylori 26695 ATCC 700392 at pH 8 by microdilution method; assay type: functional
Helicobacter pylori [24] = test: Antimicrobial activity against metronidazole and clarithromycin-resistant Helicobacter pylori v633 at pH 7 by microdilution method; assay type: functional
Helicobacter pylori [25] = test: Antimicrobial activity against metronidazole and clarithromycin-resistant Helicobacter pylori v1254 at pH 7 by microdilution method; assay type: functional
Helicobacter pylori [26] = test: Antimicrobial activity against metronidazole and clarithromycin-resistant Helicobacter pylori v633 at pH 5 by microdilution method; assay type: functional
AGS [27] = test: Inhibition of Helicobacter pylori 26695 ATCC 700392 cytotoxin A-induced vacuolation in human AGS cells after 24 hrs by neutral red uptake assay; assay type: functional, cell-based
[28] = Antimicrobial activity against Helicobacter pylori 26695 ATCC 700392 at 50 ug/ml by disk agar diffusion method; assay type: functional; conditions: read-out: DIZ
[29] = Antimicrobial activity against Helicobacter pylori 26695 ATCC 700392 at 800 ug/ml by disk agar diffusion method; assay type: functional; conditions: read-out: DIZ

COc1cc(Cn2c(-c3cccc4ccccc34)nc3cc(C)ccc32)cc(OC)c1OC
zone of inhibition at 100 µg/mL [1]: 12 mm

COc1cc(Cn2c(-c3ccc4ccccc4c3)nc3cc(C)ccc32)cc(OC)c1OC
zone of inhibition at 100 µg/mL [1]: 0 mm

COc1cc(Cn2c(-c3ccccc3F)nc3cc(C)ccc32)cc(OC)c1OC
Activity (AGS [2]): Non-toxic
inhibition at 20 µg/mL (Helicobacter pylori [3]): 58%
inhibition (AGS [4]): 85%
inhibition at 20 µg/mL (Helicobacter pylori [5]): 55%
inhibition (Helicobacter pylori [6]): Dose-dependent effect
inhibition at 20 µg/mL (Helicobacter pylori [7]): 98%
inhibition at 10 µg/mL (Helicobacter pylori [8]): 31%
inhibition (Helicobacter pylori [9]): Dose-dependent effect
MBC (Helicobacter pylori [10]): 12.5 µg/mL (≈ 30.8 µM)
MBC [11]: 25 µg/mL (≈ 61.5 µM)
inhibition (AGS [12]): 42%
inhibition at 5 µg/mL (Helicobacter pylori [13]): 7%
MBC (Helicobacter pylori [14]): 12.5 µg/mL (≈ 30.8 µM)
inhibition (Helicobacter pylori [15]): Dose-dependent effect
inhibition at 5 µg/mL (Helicobacter pylori [16]): 6%
zone of inhibition at 100 µg/mL [1]: 24 mm
inhibition at 20 µg/mL (Helicobacter pylori [17]): 55%
inhibition at 20 µg/mL (Helicobacter pylori [18]): 52%
MBC [19]: 25 µg/mL (≈ 61.5 µM)
inhibition (AGS [20]): 14%
inhibition at 10 µg/mL (Helicobacter pylori [21]): 28%
MBC (Helicobacter pylori [22]): 12.5 µg/mL (≈ 30.8 µM)
MBC [23]: 25 µg/mL (≈ 61.5 µM)
MBC (Helicobacter pylori [24]): 12.5 µg/mL (≈ 30.8 µM)
MBC (Helicobacter pylori [25]): 12.5 µg/mL (≈ 30.8 µM)
MBC (Helicobacter pylori [26]): 12.5 µg/mL (≈ 30.8 µM)
inhibition (AGS [27]): Dose-dependent effect

CC[C@H]1OC(=O)[C@H](C)[C@@H](O[C@H]2C[C@@](C)(OC)[C@@H](O)[C@H](C)O2)[C@H](C)[C@@H](O[C@@H]2O[C@H](C)C[C@H](N(C)C)[C@H]2O)[C@](C)(OC)C[C@@H](C)C(=O)[C@H](C)[C@@H](O)[C@]1(C)O [CLARITHROMYCIN]
zone of inhibition at 50 µg/mL [28]: 21 mm

COc1ccc(-c2nc3cc(C)ccc3n2Cc2cc(OC)c(OC)c(OC)c2)cc1
Activity (AGS [2]): Toxic
zone of inhibition at 100 µg/mL [1]: 22 mm

COc1cc(Cn2c(-c3ccccc3)nc3ccc(Cl)cc32)cc(OC)c1OC
zone of inhibition at 100 µg/mL [1]: 14 mm

COc1ccc(-c2nc3ccc(Cl)cc3n2Cc2cc(OC)c(OC)c(OC)c2)cc1
zone of inhibition at 100 µg/mL [1]: 12 mm

COc1cc(Cn2c(-c3ccccc3)nc3cc(Cl)ccc32)cc(OC)c1OC
zone of inhibition at 100 µg/mL [1]: 11 mm

COc1cc(Cn2c(-c3c(F)cccc3F)nc3cc(C)ccc32)cc(OC)c1OC
Activity (AGS [2]): Toxic
zone of inhibition at 100 µg/mL [1]: 24 mm

COc1ccc(-c2nc3ccc(C)cc3n2Cc2cc(OC)c(OC)c(OC)c2)cc1
zone of inhibition at 100 µg/mL [1]: 15 mm

COc1cc(Cn2c(-c3ccc(Cl)cc3Cl)nc3cc(C)ccc32)cc(OC)c1OC
zone of inhibition at 100 µg/mL [1]: 11 mm

COc1cc(Cn2c(-c3cccc(F)c3)nc3cc(C)ccc32)cc(OC)c1OC
zone of inhibition at 100 µg/mL [1]: 0 mm

COc1cc(Cn2c(-c3ccccc3)nc3cc(C)c(C)cc32)cc(OC)c1OC
zone of inhibition at 100 µg/mL [1]: 16 mm

COc1cc(Cn2c(-c3ccc(C#N)cc3)nc3cc(C)ccc32)cc(OC)c1OC
zone of inhibition at 100 µg/mL [1]: 12 mm

COc1ccc(-c2nc3cc(Cl)ccc3n2Cc2cc(OC)c(OC)c(OC)c2)cc1
zone of inhibition at 100 µg/mL [1]: 11 mm

COc1cc(Cn2c(-c3ccc(F)cc3)nc3cc(C)ccc32)cc(OC)c1OC
zone of inhibition at 100 µg/mL [1]: 17 mm

COc1cc(Cn2c(-c3cccc(Cl)c3Cl)nc3cc(C)ccc32)cc(OC)c1OC
zone of inhibition at 100 µg/mL [1]: 13 mm

Cc1ncc([N+](=O)[O-])n1CCO [METRONIDAZOLE]
zone of inhibition at 800 µg/mL [29]: 7 mm
inhibition at 20 µg/mL (Helicobacter pylori [3]): 20%
MBC (Helicobacter pylori [10]): 100 µg/mL (≈ 584 µM)
MBC [11]: 12.5 µg/mL (≈ 73 µM)
MBC (Helicobacter pylori [14]): 50 µg/mL (≈ 292 µM)
inhibition at 20 µg/mL (Helicobacter pylori [18]): 20%
MBC [19]: 6.25 µg/mL (≈ 36.5 µM)
MBC (Helicobacter pylori [22]): 100 µg/mL (≈ 584 µM)
MBC [23]: 12.5 µg/mL (≈ 73 µM)
MBC (Helicobacter pylori [24]): 50 µg/mL (≈ 292 µM)
MBC (Helicobacter pylori [25]): 100 µg/mL (≈ 584 µM)
MBC (Helicobacter pylori [26]): 50 µg/mL (≈ 292 µM)

COc1cc(Cn2c(-c3ccc(Cl)c(Cl)c3)nc3cc(C)ccc32)cc(OC)c1OC
zone of inhibition at 100 µg/mL [1]: 9 mm

COc1ccc2nc(-c3ccccc3)n(Cc3cc(OC)c(OC)c(OC)c3)c2c1
zone of inhibition at 100 µg/mL [1]: 0 mm

c1ccc2[nH]cnc2c1 [BENZIMIDAZOLE]
MBC (Helicobacter pylori [10]): > 800 µg/mL
MBC [11]: 400 µg/mL (≈ 3390 µM)
inhibition (AGS [12]): Active
MBC (Helicobacter pylori [14]): 400 µg/mL (≈ 3390 µM)
zone of inhibition at 100 µg/mL [1]: 0 mm
MBC [19]: > 800 µg/mL
MBC (Helicobacter pylori [22]): 400 µg/mL (≈ 3390 µM)
MBC [23]: > 800 µg/mL
MBC (Helicobacter pylori [24]): 400 µg/mL (≈ 3390 µM)
MBC (Helicobacter pylori [25]): 400 µg/mL (≈ 3390 µM)
MBC (Helicobacter pylori [26]): > 800 µg/mL
inhibition (AGS [27]): Active

COc1cc(Cn2c(-c3ccccc3)nc3cc(F)ccc32)cc(OC)c1OC
zone of inhibition at 100 µg/mL [1]: 17 mm

COc1cc(Cn2c(-c3cc(F)ccc3F)nc3cc(C)ccc32)cc(OC)c1OC
zone of inhibition at 100 µg/mL [1]: 11 mm

COc1ccccc1-c1nc2cc(C)ccc2n1Cc1cc(OC)c(OC)c(OC)c1
Activity (AGS [2]): Toxic
zone of inhibition at 100 µg/mL [1]: 21 mm

COc1cc(Cn2c(-c3cccc(C)c3)nc3cc(C)ccc32)cc(OC)c1OC
zone of inhibition at 100 µg/mL [1]: 19 mm

CC1(C)S[C@@H]2[C@H](NC(=O)[C@H](N)c3ccc(O)cc3)C(=O)N2[C@H]1C(=O)O [AMOXICILLIN]
zone of inhibition at 50 µg/mL [28]: 14 mm

COc1cc(Cn2c(-c3ccccc3Cl)nc3cc(C)ccc32)cc(OC)c1OC
Activity (AGS [2]): Toxic
zone of inhibition at 100 µg/mL [1]: 21 mm

COc1cc(Cn2c(-c3ccccc3)nc3cc(C)ccc32)cc(OC)c1OC
Activity (AGS [2]): Toxic
zone of inhibition at 100 µg/mL [1]: 22 mm

COc1cc(Cn2c(-c3ccccc3)nc3ccc(C)cc32)cc(OC)c1OC
Activity (AGS [2]): Toxic
zone of inhibition at 100 µg/mL [1]: 21 mm

COc1cc(Cn2c(-c3ccccc3C)nc3cc(C)ccc32)cc(OC)c1OC
zone of inhibition at 100 µg/mL [1]: 14 mm

COc1cccc(-c2nc3cc(C)ccc3n2Cc2cc(OC)c(OC)c(OC)c2)c1
zone of inhibition at 100 µg/mL [1]: 0 mm
